The text below walks through data of ChEMBL document CHEMBL3727348, “3-(aryl or heteroaryl) methyleneindolin-2-one derivatives as inhibitors of cancer stem cell pathway kinases for the treatment of cancer” (2014).

pIC50: −log10 of the molar value.

In experiment [1] the test system is FaDu. Put plainly: Cytotoxic activity against human FADU bulk cells incubated for 72 hrs by Cell-titer-Glo luminescence assay. The class given is functional, cell-based.
For experiment [2], the system named is FaDu. Put plainly: Cytotoxic activity against human FADU cancer stem cells incubated for 72 hrs by Cell-titer-Glo luminescence assay. It is filed as functional, cell-based.

`O=C1Nc2ccc(-c3csc(-c4ccccc4)n3)cc2/C1=C/c1cc2ccccc2[nH]1` showed a pIC50 with FaDu [1] of 4.31.

`CCN(CC)CCNC(=O)c1c(C)[nH]c(/C=C2\C(=O)Nc3ccc(-c4cs/c(=N\c5ccccc5)n4C)cc32)c1C`: the negative-log IC50 (pIC50) in the experiment on FaDu [1] was 5.27; with FaDu [2], 5.66.

In turn, `Cc1[nH]c(/C=C2\C(=O)Nc3ncc(-c4csc(-c5ccccc5)n4)cc32)c(C)c1C(=O)N1CCN(C)CC1` showed a pIC50 in the experiment with FaDu [1] of 4.41.

For the molecule `COc1cccnc1-c1ccc2c(c1)/C(=C/c1[nH]c(C)cc1C)C(=O)N2`, the negative logarithm of the IC50 (pIC50) in the experiment on FaDu [1] was 4.48.

Consider `Cc1[nH]c(/C=C2\C(=O)Nc3ccc(-c4ccc(-c5ccccc5)s4)cc32)c(C)c1C(=O)NCCN1CCCC1`, for which the pIC50 in the experiment with FaDu [1] is 5.35; in the experiment with FaDu [2], 5.79.

Consider `Cc1[nH]c(/C=C2\C(=O)Nc3ccc(-c4cnn(-c5ccccn5)c4)cc32)c(C)c1C(=O)N1CCOCC1`, for which, in the experiment with FaDu [2], the negative-log IC50 (pIC50) was 5.05.

In the case of `O=C1Nc2ccc(-c3csc(-c4ccncc4)n3)cc2/C1=C/c1ccc(N2CCOCC2)cc1`, in the experiment on FaDu [1], the negative-log IC50 (pIC50) is 4.76.

Molecule `CCOC(=O)c1c(C)[nH]c(/C=C2\C(=O)Nc3ccc(-c4csc(-c5ccccc5)n4)cc32)c1C` had a pIC50 with FaDu [2] of 4.70.

For `O=C1Nc2ccc(-c3csc(-c4ccccc4)n3)cc2/C1=C/c1ccc(C(=O)NCCN2CCOCC2)c(=O)[nH]1`, the pIC50 in the experiment on FaDu [2] was 4.47.

In the experiment with FaDu [2], `Cc1[nH]c(/C=C2\C(=O)Nc3ccc(-c4ncc(-c5ccccc5)o4)cc32)c(C)c1C(=O)N1CCN(C)CC1` showed a pIC50 of 5.62.

`CCN(CC)CCNC(=O)c1c(C)[nH]c(/C=C2\C(=O)Nc3ccc(-c4oc(-c5ccccc5)nc4C)cc32)c1C`: the negative logarithm of the IC50 (pIC50) in the experiment with FaDu [2] is 4.74.

As to `Cc1ccc(-c2nc(-c3ccc4c(c3)/C(=C/c3[nH]c(C)c(C(=O)N5CCOCC5)c3C)C(=O)N4)cs2)cc1`, the pIC50 with FaDu [1] is 5.52.

On to `Cc1[nH]c(/C=C2\C(=O)Nc3ccc(-c4ccnn4-c4ccc(C#N)cc4)cc32)c(C)c1C(=O)N1CCN(C)CC1`, for which the negative-log IC50 (pIC50) with FaDu [2] is 4.32.

As for `CN1CCN(C(=O)c2ccc(/C=C3\C(=O)Nc4ccc(-c5csc(-c6ccccc6)n5)cc43)[nH]c2=O)CC1`, in the experiment with FaDu [2], the pIC50 was 4.64. This pIC50 lies 0.32 log units higher than the previous one.

With `CCN(CC)CCNC(=O)c1c(C)[nH]c(/C=C2\C(=O)Nc3ccc(C4CCN(C5CCOCC5)CC4)cc32)c1C`, the pIC50 in the experiment on FaDu [1] was 4.62.

In the experiment with FaDu [1], `CCN(CC)CCNC(=O)c1c(C)[nH]c(/C=C2\C(=O)Nc3ccc(-c4cnc(-c5ccccc5)s4)cc32)c1C` showed a negative logarithm of the IC50 (pIC50) of 4.63.

As for `CCN(CC)CCNC(=O)c1c(C)[nH]c(/C=C2\C(=O)Nc3cc(-c4ccc5cc[nH]c(=O)c5c4)ccc32)c1C`, the pIC50 with FaDu [1] is 4.62.

In the experiment on FaDu [1], `CCN(CC)CCNC(=O)c1c(C)[nH]c(/C=C2\C(=O)Nc3ccc(-c4csc(-c5ccccn5)n4)cc32)c1C` gave a negative logarithm of the IC50 (pIC50) of 4.33.

The molecule `Cc1[nH]c(/C=C2\C(=O)Nc3ccc(-c4csc(C5CCNCC5)n4)cc32)c(C)c1C(=O)O` showed a pIC50 in the experiment on FaDu [2] of 5.25.

As to `Cc1cc(C)c(/C=C2\C(=O)Nc3cc(-c4ccc(-c5ccccc5)nc4)ccc32)[nH]1`, the negative logarithm of the IC50 (pIC50) in the experiment on FaDu [2] is 4.74. Against the preceding molecule, the pIC50 is 0.51 log units lower.

For `O=C1Nc2ccc(-c3csc(-c4ccccc4)n3)cc2/C1=C/c1ccc(N2CCOCC2)cc1`, the negative-log IC50 (pIC50) in the experiment with FaDu [1] is 4.45.

Molecule `CCOC(=O)CCc1cccc(-c2nc(-c3ccc4c(c3)/C(=C/c3[nH]c(C)c(C(=O)NCCN(CC)CC)c3C)C(=O)N4)cs2)c1` had a pIC50 in the experiment on FaDu [2] of 5.63.

On to `Cc1cc(C)c(/C=C2\C(=O)Nc3cc(-c4ccc5ccccc5n4)ccc32)[nH]1`, for which the negative logarithm of the IC50 (pIC50) in the experiment with FaDu [1] is 4.85.

In the experiment on FaDu [2], `O=C1Nc2ccc(-c3csc(-c4ccncc4)n3)cc2/C1=C/c1cc2ccccc2[nH]1` gave a pIC50 of 5.51.

Molecule `Cc1cc(C)c(/C=C2\C(=O)Nc3cc(-c4cnc5ccnn5c4)ccc32)[nH]1` had a pIC50 in the experiment with FaDu [2] of 4.83.

Molecule `Cc1cc(C)c(/C=C2\C(=O)Nc3cc(-c4cccc(C#N)c4C)ccc32)[nH]1` showed a negative logarithm of the IC50 (pIC50) in the experiment on FaDu [2] of 4.41.

In the experiment on FaDu [2], `CCN(CC)CCNC(=O)c1c(C)[nH]c(/C=C2\C(=O)Nc3ncc(-c4csc(-c5ccccc5)n4)cc32)c1C` showed a negative-log IC50 (pIC50) of 5.80.

Regarding `Cc1[nH]c(/C=C2\C(=O)Nc3ccc(-c4cnn(-c5ccccc5)c4C)cc32)c(C)c1C(=O)N1CCN(C)CC1`, in the experiment on FaDu [2], the negative-log IC50 (pIC50) is 4.83.
